Test systems include A498; A549; ACHN; CAKI-1; EKVX; HCC 2998; HCT-15; Hs-578T; MDA-N; MOLT-4; NCI-H23; NCI-H460; NCI/ADR-RES; OVCAR-5; PC-3; SF-539; SW-620; U-251; UACC-257; UO-31.
Holding throughout (assay): NCI-60 cell line screen, 48 h

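The compound was tested at five concentrations on cells cultured in 96-well plates, with a 48-hour exposure period. Abbreviation: GI50, concentration required for 50% inhibition of growth.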 Calls of active or inactive are those of the source. No stated cut-off is given here; in the data, active = GI50 up to about 1.1 µM and inactive = higher.

Take `NC(Cc1c[nH]c2ccccc12)P(=O)(O)O` (stereo not given): the GI50 with A498, in the test on A549, with ACHN, in the test on CAKI-1, in the test on EKVX and with HCC 2998 was > 100 µM (inactive) in each case. The GI50 in the test with HCT-15 is above 100 µM; in the test with Hs-578T, > 100 µM (inactive); with MDA-N, > 100 µM (inactive); in the test with MOLT-4, > 100 µM (inactive); with NCI-H23 it was > 100 µM (inactive); with NCI-H460, > 100 µM (inactive). In addition, the GI50 with NCI/ADR-RES, with OVCAR-5, in the test on PC-3, in the test with SF-539, in the test with SW-620 and with U-251 was > 100 µM (inactive) in each case. The GI50 with UACC-257 and with UO-31 was > 100 µM (inactive) throughout.

`O=P1(NCCCl)OCCCN1CCCl` (stereo not given) [IFOSFAMIDE]: the GI50 in the test on A498 was 428 µM (inactive); with A549 it was 401 µM (inactive); in the test on ACHN it was > 479 µM (inactive); in the test on CAKI-1, 287 µM (inactive); in the test on EKVX it was 352 µM (inactive); in the test with HCC 2998, 346 µM (inactive). The GI50 with HCT-15 was 376 µM; with Hs-578T, > 500 µM (inactive); with MDA-N it was > 500 µM (inactive); in the test with MOLT-4, 262 µM (inactive); in the test on NCI-H23, 417 µM (inactive); in the test with NCI-H460 it was 394 µM (inactive). For the same compound, the GI50 is 410 µM (inactive) in the test on NCI/ADR-RES; 407 µM (inactive) in the test with OVCAR-5; > 500 µM (inactive) with PC-3; 355 µM (inactive) with SF-539; 340 µM (inactive) in the test on SW-620; 310 µM (inactive) in the test with U-251. Besides, the GI50 in the test with UACC-257 is 345 µM (inactive); in the test on UO-31 it was 386 µM (inactive).

The values are drawn from ChEMBL document CHEMBL1201862, “PubChem BioAssay data set” (2004).
